Measured values taken from patent US8471063B2, “Michael systems as transglutaminase inhibitors” (Zedira GmbH, priority 2006, dated 2013).
Where a SMILES comes first, the peptide text is derived from it. [ ]: non-standard residue; d: D form. The star is where a group is joined. Nle(5E-ene,6-CO2Et) = CCOC(=O)/C=C/CC[C@H](N)C(=O)O; Cbz = O=C(OCc1ccccc1)*

Assays:
dog (Irish setter) = assay: In-vivo experiment in the Irish setter fed a wheat-containing diet
Protocol: A 5 weeks old dog (Irish setter) was fed with a wheat-containing diet. […] By a jejunal biopsy a partial degradation of the intestinal villi and an increased number of intraepithelial lymphocytes were found.
This dog was fed before each meal with 75 mg/kg body weight transglutaminase inhibitor (1) in a acid-stable formulation. In the following a decrease of the diarrhea and an increase in body weight were observed.

FXIII = biological target: T1, FXIII (Homo sapiens, UniProt P00488); assay: Transglutaminase inhibition, IC50 at FXIII; assay type: biochemical; conditions: Table 1
T1 sequence (P00488 1-732): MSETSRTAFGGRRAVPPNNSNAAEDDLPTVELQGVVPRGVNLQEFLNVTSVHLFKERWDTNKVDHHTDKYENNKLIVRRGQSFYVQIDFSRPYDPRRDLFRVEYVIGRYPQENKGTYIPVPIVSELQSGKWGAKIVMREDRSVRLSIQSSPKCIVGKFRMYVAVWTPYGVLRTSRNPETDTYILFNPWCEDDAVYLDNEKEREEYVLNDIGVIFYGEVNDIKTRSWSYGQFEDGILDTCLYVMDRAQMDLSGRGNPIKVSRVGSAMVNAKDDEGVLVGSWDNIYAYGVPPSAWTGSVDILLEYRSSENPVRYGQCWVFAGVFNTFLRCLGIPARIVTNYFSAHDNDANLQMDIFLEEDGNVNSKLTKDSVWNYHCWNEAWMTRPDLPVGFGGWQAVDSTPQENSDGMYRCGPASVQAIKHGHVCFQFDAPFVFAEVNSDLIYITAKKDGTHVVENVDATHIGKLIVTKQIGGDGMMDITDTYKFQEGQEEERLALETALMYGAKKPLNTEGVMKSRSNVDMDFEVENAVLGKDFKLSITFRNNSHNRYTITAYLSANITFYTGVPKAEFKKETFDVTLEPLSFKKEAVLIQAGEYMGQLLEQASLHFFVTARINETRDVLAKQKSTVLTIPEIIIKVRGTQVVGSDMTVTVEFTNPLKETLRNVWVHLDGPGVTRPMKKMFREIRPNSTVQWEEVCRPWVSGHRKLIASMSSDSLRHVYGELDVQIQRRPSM

[1] = system: biopsies from the lower duodenum of patients suffering from coeliac disease; assay: Biopsy example 1: anti-TG2 ELISA of PT gliadin stimulated duodenal biopsies; assay type: cell-based, human; conditions: 5 μM inhibitor, 30 min preincubation, then PT gliadin 1 mg/ml, 48 hrs; medium control 1.285, PT gliadin alone 2.144
Protocol: (§1) Biopsies with a diameter of about 2 mm were stored for a maximum of 30 min in ice-cold PBS after removal from the lower duodenum of patients suffering from coeliac disease. The single biopsies were transferred into the cavities of a 24-well cell culture dish and coated with 500 μl of Trowell T8 medium.
(§2) For preincubation, the transglutaminase inhibitor (1) in a final concentration of 5 μM was added to the biopsies and they were incubated for 30 min at a temperature of 37° C. in the incubator under gassing with CO2 (5%). Subsequently, stimulation with gliadin after peptic-tryptic digest (PT gliadin) used in a final concentration of 1 mg/ml was performed. PT gliadin was produced as described by Wieser and Belitz (Wieser H and Belitz HD (1992), Z Lebenm Unters Forsch 194: 229-234). The treatment with the proteases pepsin and trypsin simulates the digestion in the gastrointestinal tract. Thus the resulting gliadin peptides correspond to those which occur in the duodenum after the intake of cereal protein. The biopsies were then incubated for another 48 hrs in the incubator under the above conditions.
Controls were incubated with inhibitor-free medium and without or respectively with PT gliadin.
After 48 hrs, 50 μl samples were taken and analyzed by means of an anti-TG2 ELISA kit.

[2] = system: biopsies from the lower duodenum of patients suffering from coeliac disease; assay: Biopsy example 2: interferon-γ ELISA of PT gliadin stimulated duodenal biopsies; assay type: cell-based, human; conditions: 5 μM inhibitor preincubation, PT gliadin stimulation
Protocol: as §1
as §2, with “Thus the resulting gliadin peptides correspond to those which occur in the duodenum after the intake of cereal protein. The biopsies were then incubated for another 48 hrs in the incubator under the above conditions.” left out
Biopsies were cultivated and treated as described in biopsy example 1. After 24 and 48 hrs, 50 μl samples were taken both from the biopsy stimulated with PT gliadin and from the biopsy preincubated with inhibitor (1), which subsequently was also stimulated with PT gliadin and the samples were analyzed by means of an interferon-γ Elisa. A very high interferon-γ value of 653 pg/ml could already be measured in the biopsy stimulated with PT gliadin after 24 hrs, which value increased to 1177 pg/ml after 48 hrs.

[3] = biological target: T2, recombinant human tissue transglutaminase (His6-rh-TG2) (Homo sapiens, UniProt P21980); assay: Inactivation of human tissue transglutaminase, fluorescence assay, IC50; assay type: biochemical; conditions: Table 1; 5 min preincubation, 37° C.
T2 sequence (P21980 1-687): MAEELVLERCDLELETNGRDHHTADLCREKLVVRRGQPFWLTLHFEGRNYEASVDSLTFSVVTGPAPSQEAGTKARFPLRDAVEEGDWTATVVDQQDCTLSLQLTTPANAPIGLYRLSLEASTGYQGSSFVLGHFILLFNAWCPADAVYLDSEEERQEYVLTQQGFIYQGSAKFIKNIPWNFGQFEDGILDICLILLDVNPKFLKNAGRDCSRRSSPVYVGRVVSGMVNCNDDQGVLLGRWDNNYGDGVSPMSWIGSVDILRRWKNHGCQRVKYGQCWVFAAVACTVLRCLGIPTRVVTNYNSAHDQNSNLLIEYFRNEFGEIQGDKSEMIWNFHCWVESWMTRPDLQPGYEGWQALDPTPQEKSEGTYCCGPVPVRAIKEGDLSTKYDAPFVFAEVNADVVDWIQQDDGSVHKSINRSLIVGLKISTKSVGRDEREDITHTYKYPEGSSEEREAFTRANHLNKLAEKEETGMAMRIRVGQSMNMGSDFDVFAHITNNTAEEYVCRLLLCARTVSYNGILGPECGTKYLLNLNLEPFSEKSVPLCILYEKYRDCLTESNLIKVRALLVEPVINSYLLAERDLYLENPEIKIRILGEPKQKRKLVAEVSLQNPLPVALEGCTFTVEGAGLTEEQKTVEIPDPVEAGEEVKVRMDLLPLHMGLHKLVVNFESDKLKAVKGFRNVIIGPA
In short: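 10 μg His6-rh-TG2 added to a pH 7.5 Tris/CaCl2/DTT/PEG8000 assay solution holding inhibitor, 5.56 mM glycine methyl ester and 50 μM Abz-APE(CAD-DNP)QEA-OH (pre-addition levels); 5 min at 37 °C before reading. Fluorescence λexc 313/λem 418 nm over 15 min; activity from slope, IC50 relative to DMSO control.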

[4] = 75 mg/kg before each meal, after two months
[5] = 75 mg/kg body weight before each meal, acid-stable formulation

With CCOC(=O)/C=C/CC[C@H](NC(=O)OCc1ccccc1)C(=O)N[C@H](C(=O)N1CCC[C@H]1C(=O)N[C@@H](CC(C)C)C(=O)OC)C(C)C [Compound 1, N^α-benzyloxycarbonyl-{[(E)-(L)-6-amino-hept-2-ene-dicarboxylic acid]-1-ethanoyl}-L-valinyl-L-prolinyl-L-leucine methyl ester] (Cbz-[Nle(5E-ene,6-CO2Et)]VPL-OMe) the “length of the intestinal villi (biopsy)” value (dog (Irish setter); [4]) was “normal length”, the “number of intraepithelial lymphocytes (biopsy)” value (dog (Irish setter); [4]) was “significantly reduced” and the body weight (dog (Irish setter); [5]) was “increase”. For the same molecule, the diarrhea (dog (Irish setter); [5]) was “decrease”, the IC50 (FXIII) was > 50000 nM and the “OD450 in the anti-TG2 ELISA (antibody concentration)” value [1] was 1.401. For the same molecule, the interferon-γ value ([2]; after 24 hrs, PT gliadin alone 653 pg/ml) was 86 pg/mL, the interferon-γ value ([2]; after 48 hrs, PT gliadin alone 1177 pg/ml) was 426 pg/mL and the IC50 [3] was 30 nM.
